Experiment: Solubility (saturation concentration) of color developer free base in solvents at ambient temperature
Details: ambient temperatures; liquid free base; stated, saturation concentration not evaluated
Method: To define the free base solution product compositions, the solubility of the free base form of color developers N-ethyl-N-(2-methanesulfonylaminoethyl)-2-methyl-p-phenylenediamine and N-ethyl-N-(2-hydroxyethyl)-2-methyl-p-phenylenediamine was determined in a number of potential solvents at ambient temperature, nominally 24° C.
A small quantity, about 3 weight % relative to the weight of the solvent, of N,N-diethylhydroxylamine (DEHA) was added as a preservative to each determination. Excess color developer free base identified above was added to each solvent and saturation was achieved by mixing for several hours at room temperature.

Compound: CCN(CC)c1ccc(N)cc1C [N,N-diethyl-2-methyl-p-phenylenediamine]
- Miscibility with the water-soluble, water-miscible, hydroxy-containing solvent candidates: fully miscible

Source: US6623914B2, “Method for preparing an acid salt of p-phenylenediamine-type photographic color developers” (Eastman Chemical Company, priority 2001, dated 2003)
